Reference: ChEMBL document CHEMBL4507319 (2021)

Legend:
Details in all cases: Compound concentration 1000.0 nM
[1] = system: Tyrosine-protein kinase ABL1 (Homo sapiens), P00519 [H396P]
[2] = biological target: T1, Cytoplasmic tyrosine-protein kinase BMX (Homo sapiens) (UniProt P51813)
T1 sequence (whole entry): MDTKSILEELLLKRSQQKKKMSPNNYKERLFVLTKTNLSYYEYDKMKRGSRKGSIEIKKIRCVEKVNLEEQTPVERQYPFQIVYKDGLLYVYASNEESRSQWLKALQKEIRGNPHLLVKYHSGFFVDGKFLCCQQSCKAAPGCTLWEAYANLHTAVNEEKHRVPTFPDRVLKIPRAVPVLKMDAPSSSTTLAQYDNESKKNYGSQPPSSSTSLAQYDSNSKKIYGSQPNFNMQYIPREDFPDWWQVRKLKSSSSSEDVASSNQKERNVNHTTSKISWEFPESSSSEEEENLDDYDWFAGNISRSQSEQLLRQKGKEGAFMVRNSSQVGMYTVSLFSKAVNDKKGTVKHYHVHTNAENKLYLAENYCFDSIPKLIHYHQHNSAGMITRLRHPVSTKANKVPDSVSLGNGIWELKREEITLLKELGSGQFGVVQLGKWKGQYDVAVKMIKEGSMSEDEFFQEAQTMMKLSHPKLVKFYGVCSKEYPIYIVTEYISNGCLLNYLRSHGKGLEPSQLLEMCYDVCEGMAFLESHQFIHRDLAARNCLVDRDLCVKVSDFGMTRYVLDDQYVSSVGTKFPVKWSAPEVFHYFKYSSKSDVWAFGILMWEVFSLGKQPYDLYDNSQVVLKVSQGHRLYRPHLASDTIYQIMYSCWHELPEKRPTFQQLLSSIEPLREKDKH

[3] = biological target: Calcium/calmodulin-dependent protein kinase type 1G (Homo sapiens) (UniProt Q96NX5)
[4] = biological target: T2, Dual specificity tyrosine-phosphorylation-regulated kinase 2 (Homo sapiens) (UniProt Q92630)
T2 sequence (whole entry): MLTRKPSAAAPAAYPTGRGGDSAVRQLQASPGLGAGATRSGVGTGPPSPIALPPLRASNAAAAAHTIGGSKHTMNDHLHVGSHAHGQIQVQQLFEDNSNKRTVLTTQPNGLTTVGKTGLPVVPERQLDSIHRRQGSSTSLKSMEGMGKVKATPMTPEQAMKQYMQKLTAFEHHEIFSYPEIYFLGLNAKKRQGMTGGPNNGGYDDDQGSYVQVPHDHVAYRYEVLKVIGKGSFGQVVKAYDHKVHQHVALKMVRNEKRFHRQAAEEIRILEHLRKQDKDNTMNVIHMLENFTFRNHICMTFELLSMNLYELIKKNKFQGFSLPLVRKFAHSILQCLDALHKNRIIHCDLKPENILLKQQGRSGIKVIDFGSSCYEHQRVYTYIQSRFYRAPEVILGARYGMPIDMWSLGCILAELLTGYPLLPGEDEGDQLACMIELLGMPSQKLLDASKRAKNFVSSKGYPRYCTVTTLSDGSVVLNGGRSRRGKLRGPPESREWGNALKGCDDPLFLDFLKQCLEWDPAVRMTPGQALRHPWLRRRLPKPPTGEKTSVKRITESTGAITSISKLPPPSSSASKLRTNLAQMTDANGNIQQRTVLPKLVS

[5] = system: Epidermal growth factor receptor (Homo sapiens), P00533 [UNDEFINED MUTATION]
[6] = biological target: Mitogen-activated protein kinase kinase kinase kinase 5 (Homo sapiens) (UniProt Q9Y4K4)
[7] = biological target: MAP/microtubule affinity-regulating kinase 3 (Homo sapiens) (UniProt P27448)
[8] = biological target: Dual specificity mitogen-activated protein kinase kinase 1 (Homo sapiens) (UniProt Q02750)
[9] = biological target: Dual specificity mitogen-activated protein kinase kinase 4 (Homo sapiens) (UniProt P45985)
[10] = biological target: Serine/threonine-protein kinase MRCK beta (Homo sapiens) (UniProt Q9Y5S2)
[11] = biological target: Phosphorylase b kinase gamma catalytic chain, skeletal muscle/heart isoform (Homo sapiens) (UniProt Q16816)
[12] = biological target: T3, Serine/threonine-protein kinase D1 (Homo sapiens) (UniProt Q15139)
T3 sequence (whole entry): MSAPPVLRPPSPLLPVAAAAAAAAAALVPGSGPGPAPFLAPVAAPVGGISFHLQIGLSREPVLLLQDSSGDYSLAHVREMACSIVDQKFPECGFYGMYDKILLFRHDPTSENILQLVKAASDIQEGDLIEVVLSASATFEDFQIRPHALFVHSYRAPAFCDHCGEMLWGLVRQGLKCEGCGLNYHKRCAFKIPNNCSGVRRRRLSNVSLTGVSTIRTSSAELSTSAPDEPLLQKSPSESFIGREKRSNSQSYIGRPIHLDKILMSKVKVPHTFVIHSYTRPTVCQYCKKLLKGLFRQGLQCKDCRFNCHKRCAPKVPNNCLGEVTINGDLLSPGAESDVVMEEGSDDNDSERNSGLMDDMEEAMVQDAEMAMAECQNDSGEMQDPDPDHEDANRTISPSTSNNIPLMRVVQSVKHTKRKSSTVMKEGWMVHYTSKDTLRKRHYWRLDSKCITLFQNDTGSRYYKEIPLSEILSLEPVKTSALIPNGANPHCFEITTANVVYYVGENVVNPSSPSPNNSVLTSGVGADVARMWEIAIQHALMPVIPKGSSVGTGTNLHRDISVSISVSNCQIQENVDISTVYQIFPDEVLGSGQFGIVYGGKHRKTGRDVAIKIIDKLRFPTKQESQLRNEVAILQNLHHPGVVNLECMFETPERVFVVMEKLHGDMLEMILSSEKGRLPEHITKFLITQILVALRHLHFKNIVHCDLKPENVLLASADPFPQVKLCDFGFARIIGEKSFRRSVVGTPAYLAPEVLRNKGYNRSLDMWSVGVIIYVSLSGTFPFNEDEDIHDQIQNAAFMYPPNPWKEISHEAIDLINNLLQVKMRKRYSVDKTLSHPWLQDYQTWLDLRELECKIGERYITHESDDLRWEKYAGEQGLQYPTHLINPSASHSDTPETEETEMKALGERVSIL

[13] = biological target: Serine/threonine-protein kinase RIO3 (Homo sapiens) (UniProt O14730)
[14] = biological target: Non-receptor tyrosine-protein kinase TNK1 (Homo sapiens) (UniProt Q13470)
[15] = biological target: Tyrosine-protein kinase Yes (Homo sapiens) (UniProt P07947)

Chain of Phosphorylase b kinase gamma catalytic chain, skeletal muscle/heart isoform (Homo sapiens) (Q16816 whole entry, looked up, canonical isoform): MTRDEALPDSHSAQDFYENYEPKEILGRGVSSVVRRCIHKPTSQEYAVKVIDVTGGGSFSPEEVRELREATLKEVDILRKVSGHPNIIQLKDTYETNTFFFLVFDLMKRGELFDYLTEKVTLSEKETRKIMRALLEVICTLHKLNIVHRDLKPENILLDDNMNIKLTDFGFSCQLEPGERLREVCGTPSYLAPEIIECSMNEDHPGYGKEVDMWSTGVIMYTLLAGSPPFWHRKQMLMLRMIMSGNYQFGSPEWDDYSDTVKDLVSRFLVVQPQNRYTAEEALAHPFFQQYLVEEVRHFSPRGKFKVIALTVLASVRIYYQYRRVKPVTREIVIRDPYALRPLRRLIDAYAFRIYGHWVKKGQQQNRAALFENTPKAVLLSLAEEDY
Chain of Dual specificity mitogen-activated protein kinase kinase 4 (Homo sapiens) (P45985 whole entry): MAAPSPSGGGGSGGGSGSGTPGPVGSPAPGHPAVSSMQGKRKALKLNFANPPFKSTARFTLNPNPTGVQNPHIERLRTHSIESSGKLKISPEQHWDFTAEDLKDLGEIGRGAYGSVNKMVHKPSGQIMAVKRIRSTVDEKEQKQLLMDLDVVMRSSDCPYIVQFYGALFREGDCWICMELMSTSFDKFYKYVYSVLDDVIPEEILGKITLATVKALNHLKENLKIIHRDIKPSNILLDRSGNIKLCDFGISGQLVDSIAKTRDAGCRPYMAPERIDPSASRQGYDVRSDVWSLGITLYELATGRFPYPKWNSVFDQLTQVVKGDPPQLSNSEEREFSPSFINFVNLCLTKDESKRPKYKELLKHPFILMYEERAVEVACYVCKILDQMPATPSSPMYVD
Chain of Epidermal growth factor receptor (Homo sapiens), P00533 [UNDEFINED MUTATION] (P00533 whole entry, looked up, change not shown): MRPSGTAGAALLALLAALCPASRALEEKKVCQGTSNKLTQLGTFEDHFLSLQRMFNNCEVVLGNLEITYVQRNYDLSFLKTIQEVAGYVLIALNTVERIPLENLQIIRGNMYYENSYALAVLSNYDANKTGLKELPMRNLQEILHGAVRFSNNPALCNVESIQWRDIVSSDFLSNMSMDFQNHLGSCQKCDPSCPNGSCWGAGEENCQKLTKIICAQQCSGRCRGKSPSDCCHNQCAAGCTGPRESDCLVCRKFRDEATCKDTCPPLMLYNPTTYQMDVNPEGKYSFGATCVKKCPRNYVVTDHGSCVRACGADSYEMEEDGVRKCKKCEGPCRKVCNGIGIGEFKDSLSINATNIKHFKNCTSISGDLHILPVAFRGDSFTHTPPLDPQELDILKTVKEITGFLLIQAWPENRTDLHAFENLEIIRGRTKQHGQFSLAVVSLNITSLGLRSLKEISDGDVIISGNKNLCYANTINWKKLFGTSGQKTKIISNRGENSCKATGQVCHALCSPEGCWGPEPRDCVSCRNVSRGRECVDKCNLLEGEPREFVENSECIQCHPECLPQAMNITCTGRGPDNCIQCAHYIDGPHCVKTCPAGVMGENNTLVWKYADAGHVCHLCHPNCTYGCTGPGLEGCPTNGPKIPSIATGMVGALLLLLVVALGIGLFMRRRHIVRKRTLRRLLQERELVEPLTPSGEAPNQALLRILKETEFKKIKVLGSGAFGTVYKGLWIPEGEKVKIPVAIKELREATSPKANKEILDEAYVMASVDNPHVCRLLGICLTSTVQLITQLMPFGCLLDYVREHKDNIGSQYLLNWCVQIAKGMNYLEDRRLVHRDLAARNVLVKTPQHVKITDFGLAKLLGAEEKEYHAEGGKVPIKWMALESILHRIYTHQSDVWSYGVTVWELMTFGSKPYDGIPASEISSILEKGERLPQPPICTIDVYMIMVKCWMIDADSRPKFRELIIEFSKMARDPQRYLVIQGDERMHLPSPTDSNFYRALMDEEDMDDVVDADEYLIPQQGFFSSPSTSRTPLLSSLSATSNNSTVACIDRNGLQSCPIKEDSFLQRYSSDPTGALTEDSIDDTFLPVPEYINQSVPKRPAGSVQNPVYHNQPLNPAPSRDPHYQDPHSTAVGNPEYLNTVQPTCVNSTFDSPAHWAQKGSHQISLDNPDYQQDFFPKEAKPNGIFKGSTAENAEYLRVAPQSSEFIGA
Chain of Serine/threonine-protein kinase MRCK beta (Homo sapiens) (Q9Y5S2 whole entry, canonical isoform): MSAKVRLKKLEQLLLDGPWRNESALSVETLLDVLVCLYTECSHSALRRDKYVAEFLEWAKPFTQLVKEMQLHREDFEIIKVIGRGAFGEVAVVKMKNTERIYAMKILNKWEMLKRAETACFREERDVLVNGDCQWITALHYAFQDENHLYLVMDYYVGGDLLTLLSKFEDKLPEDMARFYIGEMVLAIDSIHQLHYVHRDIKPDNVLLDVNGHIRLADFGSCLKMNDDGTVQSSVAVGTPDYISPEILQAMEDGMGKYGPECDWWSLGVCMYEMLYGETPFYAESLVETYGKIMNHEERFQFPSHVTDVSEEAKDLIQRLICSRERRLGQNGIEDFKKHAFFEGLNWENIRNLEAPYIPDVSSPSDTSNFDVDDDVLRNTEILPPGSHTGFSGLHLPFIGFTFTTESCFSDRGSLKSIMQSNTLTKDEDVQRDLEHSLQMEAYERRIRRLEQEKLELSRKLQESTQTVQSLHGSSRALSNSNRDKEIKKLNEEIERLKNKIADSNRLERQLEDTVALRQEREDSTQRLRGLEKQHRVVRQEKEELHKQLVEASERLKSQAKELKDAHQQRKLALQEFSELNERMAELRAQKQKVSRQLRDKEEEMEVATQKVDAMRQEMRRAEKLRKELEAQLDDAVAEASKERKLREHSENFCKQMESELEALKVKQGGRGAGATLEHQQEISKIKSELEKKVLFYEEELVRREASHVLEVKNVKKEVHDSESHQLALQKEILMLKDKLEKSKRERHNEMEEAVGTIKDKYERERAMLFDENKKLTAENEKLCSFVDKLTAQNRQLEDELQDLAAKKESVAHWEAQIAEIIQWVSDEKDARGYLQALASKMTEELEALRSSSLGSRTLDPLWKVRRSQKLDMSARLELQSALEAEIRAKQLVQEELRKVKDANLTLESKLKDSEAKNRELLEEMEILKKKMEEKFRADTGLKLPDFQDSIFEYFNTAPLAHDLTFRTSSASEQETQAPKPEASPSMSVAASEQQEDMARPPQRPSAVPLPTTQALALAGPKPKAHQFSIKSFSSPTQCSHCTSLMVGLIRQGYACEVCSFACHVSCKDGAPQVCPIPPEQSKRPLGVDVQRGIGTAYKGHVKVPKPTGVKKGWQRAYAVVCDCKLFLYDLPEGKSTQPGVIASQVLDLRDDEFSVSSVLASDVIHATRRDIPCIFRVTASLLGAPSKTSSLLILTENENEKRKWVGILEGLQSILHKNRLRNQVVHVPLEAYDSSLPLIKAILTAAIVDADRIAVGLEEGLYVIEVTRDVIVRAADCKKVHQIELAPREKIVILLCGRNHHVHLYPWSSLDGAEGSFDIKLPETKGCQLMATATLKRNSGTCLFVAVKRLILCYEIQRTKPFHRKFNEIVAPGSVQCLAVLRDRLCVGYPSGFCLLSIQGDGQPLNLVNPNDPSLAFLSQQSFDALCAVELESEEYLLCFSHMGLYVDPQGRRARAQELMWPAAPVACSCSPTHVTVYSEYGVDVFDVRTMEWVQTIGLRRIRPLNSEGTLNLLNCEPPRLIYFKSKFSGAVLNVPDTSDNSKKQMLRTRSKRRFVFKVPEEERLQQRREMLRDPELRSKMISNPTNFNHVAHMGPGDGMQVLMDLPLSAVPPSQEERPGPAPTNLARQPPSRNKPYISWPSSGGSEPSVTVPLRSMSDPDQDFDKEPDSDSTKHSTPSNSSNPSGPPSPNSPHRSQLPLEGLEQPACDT
Chain of Mitogen-activated protein kinase kinase kinase kinase 5 (Homo sapiens) (Q9Y4K4 whole entry, looked up): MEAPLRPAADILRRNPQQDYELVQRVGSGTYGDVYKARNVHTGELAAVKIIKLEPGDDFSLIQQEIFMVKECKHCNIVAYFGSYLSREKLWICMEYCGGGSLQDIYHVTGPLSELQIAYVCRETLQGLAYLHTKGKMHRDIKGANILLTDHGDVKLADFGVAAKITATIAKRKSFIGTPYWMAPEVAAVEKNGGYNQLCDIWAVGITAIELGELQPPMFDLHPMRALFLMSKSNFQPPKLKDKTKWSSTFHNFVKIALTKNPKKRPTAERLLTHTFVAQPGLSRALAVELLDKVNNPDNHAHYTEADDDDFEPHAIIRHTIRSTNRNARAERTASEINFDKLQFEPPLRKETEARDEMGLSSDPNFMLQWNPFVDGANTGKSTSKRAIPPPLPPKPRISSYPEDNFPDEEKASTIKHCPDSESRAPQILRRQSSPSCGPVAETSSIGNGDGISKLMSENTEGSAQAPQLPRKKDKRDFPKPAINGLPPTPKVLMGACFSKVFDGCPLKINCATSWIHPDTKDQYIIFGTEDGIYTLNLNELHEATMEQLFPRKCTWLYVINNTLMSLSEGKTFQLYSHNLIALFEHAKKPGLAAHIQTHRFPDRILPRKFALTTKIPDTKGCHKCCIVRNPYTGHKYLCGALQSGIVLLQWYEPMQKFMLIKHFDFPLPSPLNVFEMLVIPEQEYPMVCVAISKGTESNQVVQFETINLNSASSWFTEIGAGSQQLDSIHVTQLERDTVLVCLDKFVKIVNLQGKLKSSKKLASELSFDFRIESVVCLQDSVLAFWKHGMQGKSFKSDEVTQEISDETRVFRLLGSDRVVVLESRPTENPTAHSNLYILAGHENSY
Chain of Calcium/calmodulin-dependent protein kinase type 1G (Homo sapiens) (Q96NX5 whole entry): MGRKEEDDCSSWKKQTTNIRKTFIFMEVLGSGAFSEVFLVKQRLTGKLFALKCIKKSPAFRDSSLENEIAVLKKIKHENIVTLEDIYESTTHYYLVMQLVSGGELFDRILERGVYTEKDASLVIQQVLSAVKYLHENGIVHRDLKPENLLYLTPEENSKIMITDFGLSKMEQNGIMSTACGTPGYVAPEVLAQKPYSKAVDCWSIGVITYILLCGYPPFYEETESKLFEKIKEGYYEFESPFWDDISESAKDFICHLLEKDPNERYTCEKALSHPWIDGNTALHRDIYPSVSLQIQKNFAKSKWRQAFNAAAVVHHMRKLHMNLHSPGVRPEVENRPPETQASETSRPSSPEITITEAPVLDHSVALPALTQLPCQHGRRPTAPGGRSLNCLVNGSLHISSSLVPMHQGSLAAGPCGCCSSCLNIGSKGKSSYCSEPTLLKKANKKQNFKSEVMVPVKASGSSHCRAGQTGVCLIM

Compound | residual activity [1] | residual activity [2] | residual activity [3] | residual activity [4] | residual activity [5] | residual activity [6] | residual activity [7] | residual activity [8] | residual activity [9] | residual activity [10] | residual activity [11] | residual activity [12] | residual activity [13] | residual activity [14] | residual activity [15]
CCc1ccccc1C(=O)Nc1n[nH]c2c(C)c(F)c(C3C(C#N)=C(C)N(C)C(C)=C3C#N)cc12 [BAY-3827] | 97% | 96% | 90% | 82% | 62% | 100% | 30% | 100% | 100% | 100% | 44% | 100% | 45% | 100% | 86%
CC1=C(C#N)C(c2ccc3c(c2)c(NC(=O)c2ccccc2C)nn3C)C(C#N)=C(C)N1 [BAY-974] | 82% | 85% | 99% | 100% | 52% | 100% | 92% | 87% | 79% | 100% | 91% | 92% | 87% | 76% | 88%
